Experimental data: patent US20150320773A1, “TREATMENT OF INFLAMMATION” (Vascular Biogenics Ltd., priority 2011, published 2015)

How the values were obtained:
human monocytes = assay: ROS formation in human monocytes (DCF, FACS); assay type: cell-based; conditions: overnight; VB-201 10 μg/ml, PGPC 10 μg/ml, OxPAPC 100 μg/ml; relative to PBS
Procedure: Detection of ROS was performed through FACS quantification of the oxidation product dichlorodihydrofluorescein (DCF). Data are mean±SD from 3-4 experiments performed in duplicates. FIG. 23B is a histogram from a representative experiment showing DCF levels in treated cells.

CD4+ T-cells = assay: Chemotaxis assay of CD4+ T-cells; conditions: 5 μg/ml; RANTES (100 ng/ml) and SDF-1α (50 ng/ml)
Procedure: Human monocytes (CD14+ cells) and CD4+ T-cells were isolated from whole blood of healthy donors. Following PBMCs separation from whole blood using Ficoll-Paque and leucosep tubes (Greiner Bio-One), CD14+/CD4+ cells were separated using specific anti-CD14/anti-CD4 micro beads, respectively (Miltenyi Biotech). Purity of the isolated populations was validated using specific antibodies by FACS analysis. […] For chemo-attraction of monocytes, RANTES (100 ng/ml), MIP-1α (50 ng/ml) or MCP-1 (50 ng/ml) were dissolved in 0.5% fetal bovine serum(FBS)/RPMI-1640 medium and placed at the lower chamber of QCM™ 24-well migration assay plate (Corning-Costar; 5 μm pores). For chemo-attraction of CD4+ cells, 0.5% FBS/RPMI-1640 solution containing RANTES (100 ng/ml) and SDF-1α (50 ng/ml) was used, using the same plate setting. Migration assay was conducted by seeding 300,000 treated cells in the upper chamber, followed by incubation of 3-4 hours. Subsequently, the number of cells which migrated to the medium in the lower compartment was determined by FACS.

human Neutrophils = assay: Chemotaxis assay of human neutrophils; conditions: 5 μg/ml; towards LPS or 10% FBS/MCP-3
Source text: Data are mean±SD from 3 different experiments performed in triplicates. […] Data are mean±SD from 4 different donors tested in triplicates.

[1] = system: Human monocytes (CD14+ cells); assay: In vitro cell migration (trans-well chemotaxis) assay of human monocytes; assay type: cell-based
Procedure: Following incubation, cells were loaded to the upper chamber and allowed to migrate for 3.5 hours towards 0.5% fetal bovine serum/RPMI-1640 medium supplemented with recombinant human MCP-1 and RANTES (50 ng/ml each).
In order to further ascertain the significance of ERK1/2 phosphorylation and MEK1/2 phosphorylation to monocyte chemotaxis, the effect of the RAF inhibitor GW5074, which reduces MEK and ERK phosphorylation, on monocyte chemotaxis was determined in a trans-well migration assay using a combination of MCP-1 ([…]) and RANTES (70 ng/ml) as attractant. Monocytes were pre-treated with 5 μM GW5074 for 30 minutes prior to seeding in the migration chamber.
For this purpose, monocytes from healthy donors were pre-incubated for 30 min with either solvent (0.005% ethanol/PBS), phosphatidylcholine (PC; 5 μg/ml), partially oxidized PAPC (24 h oxidation; 40 μg/ml) or PGPC (5 μg/ml), and allowed to migrate towards recombinant human MCP-1 (CCL2; ligand for CCR2) and RANTES (CCL5; ligand for CCR1, CCR3, CCR5, US28) as attractants (50 ng/ml each). […]

monocytes [2] = assay: Monocyte adhesion assay (TNFα-stimulated HUVEC); assay type: cell-based, human; conditions: 1-10 μg/ml VB-201; compared to the solvent control
Procedure: Matrix plates were pre-seeded with HUVEC and subjected to 4 hour stimulation with 10 ng/ml TNFα to induce expression of adhesion molecules. Freshly isolated monocytes were stained for 30 minutes with 5 µM calcein AM (Invitrogen) in serum free RPMI and then washed twice with PBS to remove excess dye. […] 10^5 stained monocytes were loaded per well into 96-well dishes and allowed to adhere for 15 minutes. Following 4 washes with PBS, adherent monocyte intensity was read using FLUOROSKAN Ascent FL device using excitation at 485 nm and emission at 538 nm.
Next, we examined whether VB-201 or oxidized PAPC treatment of monocytes affects their interaction with endothelial cells. HUVEC were plated in 96-wells and treated with TNFαc to induce expression of adhesion molecules. […] Following extensive washes, adherent monocytes were quantified by fluorescence.

monocytes [3] = assay: Phagocytosis assay (whole blood), monocytes; assay type: cell-based, human; parameters: dose or concentration left out as unconfirmed; conditions: VB-201 doses of 5 or 10
Procedure: Phagocytosis assays were conducted using pHrodo™ Phagocytosis Particle Labeling Kit (Invitrogen) according to the manufacturer protocol. […] Then, pHrodo dye-labeled E. coli bacteria were mixed with the treated blood samples, in 20:1 ratio of pHrodo™ particles to phagocytosing cells and incubated for additional 15 minutes. Each sample was analyzed both at 4° C. (no phagocytosis, negative control) and 37° C. Following incubation, red blood cells were removed by lysis and the samples were washed 3 times with wash buffer. For gating on specific subpopulations, cells were labeled with anti-CD14-FITC (monocytes and granulocytes marker, BD Biosciences) and anti-CD66b-PerCP/Cy5.5 (granulocytes marker, BioLegend) antibodies. pHrodo fluorescence intensity was analyzed by FACS.
To this end, a phagocytosis assay was performed on whole blood from healthy donors, and the capacity of leukocyte subsets to phagocytose PE-labeled E. Coli particles was tested in presence or absence of VB-201. As a negative control, we used blood without bacterial particles, while a positive control included blood and labeled-bacterial particles incubated at 37° C. Cells were then stained with CD14 and CD66b antibodies to differentiate between monocytes and granulocytes and were analyzed by FACS.

Lp-PLA2 = Lp-PLA2 (Homo sapiens, UniProt Q13093); conditions: concentrations of up to 40 μM; data not shown
COX-2 = COX-2 (Homo sapiens, UniProt P35354); conditions: concentrations of up to 10 μM; data not shown
[4] = system: MCF-7 human breast cancer cells; assay: Wound-healing 'scratch' assay; assay type: cell-based; conditions: data not shown
COX-1 = COX-1 (Homo sapiens, UniProt P23219); conditions: concentrations of up to 10 μM; data not shown
THP-1 cells = assay: Trans-well chemotaxis assay of THP-1 cells; assay type: cell-based, human
Procedure: For chemo-attraction of monocytes, RANTES (100 ng/ml), MIP-1α (50 ng/ml) or MCP-1 (50 ng/ml) were dissolved in 0.5% fetal bovine serum(FBS)/RPMI-1640 medium and placed at the lower chamber of QCM™ 24-well migration assay plate (Corning-Costar; 5 μm pores). For chemo-attraction of CD4+ cells, 0.5% FBS/RPMI-1640 solution containing RANTES (100 ng/ml) and SDF-1α (50 ng/ml) was used, using the same plate setting. Migration assay was conducted by seeding 300,000 treated cells in the upper chamber, followed by incubation of 3-4 hours. Subsequently, the number of cells which migrated to the medium in the lower compartment was determined by FACS.
Data are mean f SD from 4 experiments in triplicates, normalized to untreated cells. **, p<0.001.

TLR2 = TLR2 (Homo sapiens, UniProt O60603); conditions: human monocytes; BO-VB201; anti-human TLR2 blocking antibody
Procedure: Human monocytes were incubated for 15 min with anti-human TLR2 blocking antibody. […] Streptavidin-APC (1:200) was used to detect binding.

[5] = Plasma concentration of VB-201 (Liquid Chromatography-Tandem Mass Spectrometry); assay type: in vivo, mouse; conditions: oral
Procedure: In this model, injection of thioglycollate to the peritoneal cavity induces a “sterile” inflammatory response recruiting peripheral monocytes to the peritoneum, where they differentiate into macrophages (Li, Y. M., et al., J. Immunol. Methods. 1997; 201:183-188). […] Upon sacrifice, the number and identity of the cells accumulating in the peritoneum was determined by FACS, and plasma samples were taken for quantification by Liquid Chromatography-Tandem Mass Spectrometry. Three days after thioglycollate injection 95% of the cells in the peritoneum were macrophages (F4/80 positive, GR-1 negative cells) (FIG. 26B).

Sequence of TLR2 (O60603 21-784): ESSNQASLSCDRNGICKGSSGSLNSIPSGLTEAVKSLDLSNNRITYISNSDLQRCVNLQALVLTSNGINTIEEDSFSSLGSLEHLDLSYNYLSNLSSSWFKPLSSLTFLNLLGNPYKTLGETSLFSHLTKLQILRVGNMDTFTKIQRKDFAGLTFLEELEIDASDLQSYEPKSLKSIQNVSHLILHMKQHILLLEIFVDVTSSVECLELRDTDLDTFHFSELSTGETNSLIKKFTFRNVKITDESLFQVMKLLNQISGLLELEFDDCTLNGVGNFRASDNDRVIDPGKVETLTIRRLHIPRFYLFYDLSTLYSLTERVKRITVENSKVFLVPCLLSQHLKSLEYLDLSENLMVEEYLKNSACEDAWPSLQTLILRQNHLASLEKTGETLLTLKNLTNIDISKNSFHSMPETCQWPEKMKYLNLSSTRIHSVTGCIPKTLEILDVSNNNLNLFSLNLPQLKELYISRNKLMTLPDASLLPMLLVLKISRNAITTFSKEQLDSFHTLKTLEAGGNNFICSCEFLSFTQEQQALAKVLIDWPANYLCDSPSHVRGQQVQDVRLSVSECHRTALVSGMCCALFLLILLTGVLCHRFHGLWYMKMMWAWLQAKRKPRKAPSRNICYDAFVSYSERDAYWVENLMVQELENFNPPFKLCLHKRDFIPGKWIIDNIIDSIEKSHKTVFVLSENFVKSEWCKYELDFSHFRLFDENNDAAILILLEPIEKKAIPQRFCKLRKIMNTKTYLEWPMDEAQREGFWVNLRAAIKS
Sequence of COX-2 (P35354 18-604): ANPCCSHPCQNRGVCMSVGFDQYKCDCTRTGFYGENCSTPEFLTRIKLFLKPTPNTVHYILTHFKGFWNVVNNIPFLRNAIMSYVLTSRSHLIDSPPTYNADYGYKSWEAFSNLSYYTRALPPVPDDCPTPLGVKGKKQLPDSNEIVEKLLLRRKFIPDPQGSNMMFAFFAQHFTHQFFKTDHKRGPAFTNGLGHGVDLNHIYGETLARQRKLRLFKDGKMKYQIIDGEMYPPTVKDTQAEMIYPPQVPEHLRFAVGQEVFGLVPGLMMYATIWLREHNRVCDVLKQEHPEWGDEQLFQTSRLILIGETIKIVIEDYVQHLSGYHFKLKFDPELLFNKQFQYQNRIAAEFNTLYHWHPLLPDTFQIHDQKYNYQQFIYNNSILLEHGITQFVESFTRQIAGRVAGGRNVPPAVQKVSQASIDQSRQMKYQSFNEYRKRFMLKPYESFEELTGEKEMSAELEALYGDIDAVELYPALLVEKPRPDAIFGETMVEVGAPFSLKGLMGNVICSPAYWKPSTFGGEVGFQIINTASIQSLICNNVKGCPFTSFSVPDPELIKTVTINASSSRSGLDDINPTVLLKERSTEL
Sequence of Lp-PLA2 (Q13093 22-441): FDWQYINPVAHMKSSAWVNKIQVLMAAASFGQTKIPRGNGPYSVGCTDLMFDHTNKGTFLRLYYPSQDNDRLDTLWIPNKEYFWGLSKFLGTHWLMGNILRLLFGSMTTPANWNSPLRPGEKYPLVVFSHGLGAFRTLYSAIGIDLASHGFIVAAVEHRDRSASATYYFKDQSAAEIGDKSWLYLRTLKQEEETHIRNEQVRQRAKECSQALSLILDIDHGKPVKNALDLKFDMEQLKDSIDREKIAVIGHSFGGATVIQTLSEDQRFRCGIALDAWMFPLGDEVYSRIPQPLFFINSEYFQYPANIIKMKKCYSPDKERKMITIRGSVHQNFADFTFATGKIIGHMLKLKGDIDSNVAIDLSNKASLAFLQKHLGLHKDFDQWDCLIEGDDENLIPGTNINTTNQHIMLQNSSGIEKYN
Sequence of COX-1 (P23219 24-599): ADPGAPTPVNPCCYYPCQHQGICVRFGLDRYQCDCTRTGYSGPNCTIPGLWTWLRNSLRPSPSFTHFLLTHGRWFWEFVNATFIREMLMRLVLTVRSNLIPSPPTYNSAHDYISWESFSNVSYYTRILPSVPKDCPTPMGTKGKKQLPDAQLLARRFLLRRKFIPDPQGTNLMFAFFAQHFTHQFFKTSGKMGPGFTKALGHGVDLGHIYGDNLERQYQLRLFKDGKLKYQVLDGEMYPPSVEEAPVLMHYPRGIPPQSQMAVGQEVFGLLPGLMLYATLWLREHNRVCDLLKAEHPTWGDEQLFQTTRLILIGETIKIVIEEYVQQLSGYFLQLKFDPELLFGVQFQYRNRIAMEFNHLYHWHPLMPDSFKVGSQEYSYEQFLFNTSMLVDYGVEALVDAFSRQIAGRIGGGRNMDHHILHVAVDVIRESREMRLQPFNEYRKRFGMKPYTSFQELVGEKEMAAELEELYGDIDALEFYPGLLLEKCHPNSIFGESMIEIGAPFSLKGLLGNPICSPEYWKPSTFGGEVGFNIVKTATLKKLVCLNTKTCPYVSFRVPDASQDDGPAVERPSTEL

In the case of CCCCCCCCCCCCCCCCOC[C@H](COP(=O)([O-])OCC[N+](C)(C)C)OCCCCC(=O)O [VB-201, (R)-1-hexadecyl-2-(4′-carboxyl)butyl-sn-glycero-3-phosphocholine], the “ROS formation in human monocytes” value (human monocytes) is reported as “no effect on ROS formation”, the CD4 cell chemotaxis (CD4+ T-cells) is reported as “unable to find any inhibition” and the “chemotaxis of human Neutrophils” value (human Neutrophils) is reported as “no effect on chemotaxis”. The “C-reactive protein-induced chemotaxis of human monocytes” value ([1]; 8.5 μM VB-201, 30 min, 50 ug/ml CRP, 3.5 hours, p<0.01) was “inhibit chemotaxis induced by CRP”, the “reduction of monocyte chemotaxis towards MCP-1 and RANTES (50 ng/ml each)” value ([1]; 30 min pre-incubation, PC 5 μg/ml, partially oxidized PAPC 40 μg/ml, PGPC 5 μg/ml, VB-201 5 μg/ml) was “profound inhibition of monocyte chemotaxis” and the “reduction of monocyte migration, MCP-1 as chemoattractant” value ([1]; VB-201 5 μg/ml, MCP-1 50 ng/ml, compared to solvent control) was “approximately 80%”. The “reduction of monocyte migration, MIP-1α as chemoattractant” value ([1]; VB-201 5 μg/ml, MIP-1α 50 ng/ml, compared to solvent control) was ~68%, the “reduction of monocyte migration, RANTES as chemoattractant” value ([1]; VB-201 5 μg/ml, RANTES 100 ng/ml, compared to solvent control) was ~72% and the “monocyte chemotaxis towards the compound (cell attractant in lower chamber)” value ([1]; data not shown) was “no monocyte chemotaxis towards VB-201 occurred”. The “inhibition of monocyte migration towards HUVEC growth medium” value ([1]; dose of 5 μg/ml) was “about 60%”, the “monocyte migration towards HUVEC growth medium” value ([1]; escalating doses) was “reduced the number of migrating cells in a dose-dependent fashion” and the “monocyte adhesion to HUVEC” value (monocytes [2]) was “had no effect on their adhesion to HUVEC”. For the same molecule, the monocyte phagocytosis capacity (monocytes [3]) was “did not have any significant effect”, the “inhibition of Lp-PLA2” value (Lp-PLA2) was “No inhibition” and the “inhibition of COX-2” value (COX-2) was “No inhibition”. The “cell migration in wound-healing scratch assay” value [4] was “no effect on cell migration”, the “inhibition of COX-1” value (COX-1) was “No inhibition” and the “effect of Wortmannin, Rapamycin and GW5074 on chemotaxis of THP-1 cells with added VB-201” value (THP-1 cells; VB-201 8.5 μM) was “further enhanced”. The “in vitro migration of THP-1 cells” value (THP-1 cells; pretreatment 30 minutes, 2 or 5 μg/ml) was “significantly inhibited in vitro migration of THP-1 cells in a dose-dependent manner”, the “binding to cell surface expressed TLR2” value (TLR2) was “Binds Cell Surface Expressed TLR2” and the “VB-201 in mice plasma” value ([5]; 0.4 mg/kg) was 0.8 ± 0.3 µmol/L. For the same molecule, the VB-201 plasma level ([5]; 4 mg/kg) was 8.5 ± 1.5 µmol/L.
